Measurements reported in patent US5904857A, “4-alkyl and aryl semicarbazides as oxygen scavengers” (Nalco Chemical Company, priority 1997, dated 1999).

What was measured:
[1] = Oxygen scavenger screening: dissolved O2 in effluent water (apparatus of FIG. 1); conditions: Equivalence Scavenger:O2 2:1, 250 ° F., feed pH 9.0-9.5
Procedure: The apparatus of FIG. 1 was utilized to evaluate the efficiency of various oxygen scavengers. Reference is made to FIG. 1. The feedstream was ambient temperature (22° C.) air-saturated deionized water. Air-saturation of the feedwater was maintained with a continuous purge with CO2 -free air. The pH of the feedwater was adjusted to within the range of 9.0-9.5 with reagent grade sodium hydroxide. All wetted parts were constructed from 316 stainless steel. Syringe infusion pumps were used for injection of scavenger and catalyst. A metering pump pressurized the flow to 85 psig. The first heating bath heated the water stream to about 214° F. in about 30 seconds. The water residence time in the second bath was 4.5 minutes, and the effluent temperature was 251° F. The water stream was cooled slightly below ambient temperature within a few seconds, the pressure was released, and the oxygen concentration of the effluent water was continuously monitored utilizing an Orbisphere oxygen probe at the exit sample point.
The data of Table 1 illustrate a remarkable reduction in dissolved O2 for the scavengers of this invention when utilized in conjunction with a catalyst in this temperature range.

[2] = Long term stability: hydrazine concentrations in high amine formulations over weeks (procedure of Example 5); assay type: physicochemical
Text: The procedure described in Example 5 was utilized to study long term stability. […] Thus, they are more advantageous than the conventional carbohydrazide treatment.

[3] = Comparative stability study: hydrazine buildup in high amine formulations over days (p-dimethylaminobenzaldehyde method, ASTM D1385-78); assay type: physicochemical
[4] = cited from earlier work
[5] = cited from earlier work; remark: listed apart in the source
[6] = catalyst none, None (untreated) 7800-8300
[7] = 6% scavenger / 40% CHA (cyclohexylamine)
[8] = 6% scavenger in 40% cyclohexylamine

CCN(CC)C(=O)NN [4,4-diethylsemicarbazide, N,N-diethylsemicarbazide]
Dissolved O2 ([1]; catalyst Co): 6500 ppb
Dissolved O2 ([1]; catalyst Cu): 189 ppb
Dissolved O2 [1, 6]: 7300 ppb
Hydrazine (ppm) at 0 weeks [2, 7]: 114 ppm
Hydrazine (ppm) at 5 weeks [2, 7]: 149 ppm
Hydrazine (ppm) at 8 weeks ([2]; 6% scavenger / 40% CHA (cyclohexylamine), 8 weeks): 178 ppm

CC(C)NC(=O)NN [4-isopropylsemicarbazide, N-isopropyl semicarbazide]
Dissolved O2 ([1]; catalyst Co): 6500 ppb
Dissolved O2 ([1]; catalyst Cu): 98 ppb
Dissolved O2 [1, 6]: 7500 ppb

NNC(=O)Nc1ccccc1 [4-phenyl semicarbazide]
Dissolved O2 ([1]; catalyst Co): 4180 ppb
Dissolved O2 ([1]; catalyst Cu): 164 ppb
Dissolved O2 [1, 6]: 7480 ppb

NNC(=O)NN [CHz, carbohydrazide]
Hydrazine (ppm) at 0 days [3, 8]: 433 ppm
Hydrazine (ppm) at 3 days [3, 8]: 1420 ppm
Hydrazine (ppm) at 6 days [3, 8]: 2100 ppm
Hydrazine (ppm) at 0 days ([3]; 6% scavenger in 40% morpholine): 94 ppm
Hydrazine (ppm) at 3 days ([3]; 6% scavenger in 40% morpholine): 280 ppm
Hydrazine (ppm) at 6 days ([3]; 6% scavenger in 40% morpholine): 465 ppm
Hydrazine (ppm) at 0 days ([3]; 6% scavenger, no amine): 54 ppm
Hydrazine (ppm) at 3 days ([3]; 6% scavenger, no amine): 56 ppm
Hydrazine (ppm) at 6 days ([3]; 6% scavenger, no amine): 59 ppm
Hydrazine (ppm) at 0 weeks [2, 7]: 433 ppm
Hydrazine (ppm) at 5 weeks [2, 7]: 6300 ppm
Hydrazine (ppm) at 0 weeks ([2]; 6% scavenger / 40% morpholine): 94 ppm
Hydrazine (ppm) at 5 weeks ([2]; 6% scavenger / 40% morpholine): 2016 ppm

NN [Hydrazine, hydrazine]
Dissolved O2 ([1]; catalyst Cu): 241 ppb
Dissolved O2 [1, 6]: 7500 ppb
absorption ([4]; Kirk-Othmer): readily absorbed through the mouth, skin and respiratory system
toxicity ([4]; Kirk-Othmer): highly toxic
corneal damage ([4]; contact with the eye): permanent corneal damage may result from contact with the eye
high dose effects ([4]; high doses): high doses may cause convulsions and other damaging side effects
low dose effects ([4]; low doses): Low doses may cause central nervous system depression
elimination of residual oxygen ([5]; Kirk-Othmer): efficiently eliminates the residual oxygen
metal passivation ([5]; adherent protective layer of magnetite over iron surfaces): good metal passivator
